Results taken from US20250163169A1, “ANTIBODIES FOR PREVENTING THE CLEAVAGE OF CD95L BY METALLOPROTEASES” (INSTITUT NATIONAL DE LA SANTÉ ET DE LA RECHERCHE MÉDICALE, priority 2022, published 2025).

Experiments:
[1] = test system: CD95L-expressing leukemic T cell 1A12; assay: Expression level of membrane-bound CD95L on 1A12 cells by flow cytometry; format: cell-based; details: 24 h, antibodies 10 pg/mL, GM6001 10 μM
Experimental: (§1) FIG. 2. Monoclonal antibodies targeting the Metalloprotease-Cleavage Sites of CD95L (MCSCs). […] Arrows represent putative cleavage site in CD95L sequence. […] Indicated peptides were injected in mice to generate monoclonal antibodies and three different hybridoma were selected regarding their ability to bind CD95L. […] B. Recombinant Ig-CD95L (100 ng) was pre-incubated for 15 min with indicated antibodies (100 pg/mL) and then treated for 1h with the indicated MMPs. The metalloprotease-cleaved fragment of Ig-CD95L (CD95L devoid of its released Ig domain of gp190) was monitored by immunoblotting. C. CD95L-expressing leukemic T cell 1A12 was incubated for 24 h with indicated antibodies ([…]) or the pan-MMP inhibitor GM6001 (10 μM) and the expression level of membrane-bound CD95L was assessed by flow cytometry. D. Supernatants were harvested from cells treated in C and the metalloprotease-cleaved CD95L was dosed by ELISA (Diaclone).

[2] = test system: s-CD95L release from 1A12 cells; assay: Metalloprotease-cleaved CD95L dosed by ELISA in supernatants of 1A12 cells; format: cell-based; details: 1A12 cells treated 24 hours, vs isotype (anti-myc 9E10 mAb) control
Experimental: as §1

CNC(=O)[C@H](Cc1c[nH]c2ccccc12)NC(=O)[C@@H](CC(=O)NO)CC(C)C [GM6001, reference compound] was tested, and the “Expression level of membrane-bound CD95L” value [1] was “augmentation of m-CD95L” and the “Concentrations of s-CD95L in supernatant” value [2] was “significantly reduced”.
